The test system of this assay is Orientia tsutsugamushi. In words: Antimicrobial activity against doxycyclin-resistant Orientia tsutsugamushi in patient of scrub typhus assessed as recovery from infection. It counts as functional.

`CC[C@H]1OC(=O)[C@H](C)C(=O)[C@H](C)[C@@H](O[C@@H]2O[C@H](C)C[C@H](N(C)C)[C@H]2O)[C@](C)(OC)C[C@@H](C)C(=O)[C@H](C)[C@H]2N(CCCCn3cnc(-c4cccnc4)c3)C(=O)O[C@]12C` [TELITHROMYCIN]: the Activity is reported as 100%. As for `C[C@H]1c2cccc(O)c2C(=O)C2=C(O)[C@]3(O)C(=O)C(C(N)=O)=C(O)[C@@H](N(C)C)[C@@H]3[C@@H](O)[C@@H]21.O` [DOXYCYCLINE], the figure is 97.8%.
